Among the data in US6686390B2, “Compounds having antiinflamatory activity: process for their preparation and pharmaceutical compositions containing them” (Dr. Reddy's Laboratories Limited, priority 2000, dated 2004) are melting point, inhibition and IC50 values, retold here.

The target in one data set is T1, cox-1 enzyme (Ovis aries, UniProt P05979).
T1 construct: Microsomal fraction of ram seminal vesicles used as a source of cox-1 enzyme; from tissue; host or cells: ram seminal vesicles (microsomal fraction)
T1 sequence (P05979 25-600): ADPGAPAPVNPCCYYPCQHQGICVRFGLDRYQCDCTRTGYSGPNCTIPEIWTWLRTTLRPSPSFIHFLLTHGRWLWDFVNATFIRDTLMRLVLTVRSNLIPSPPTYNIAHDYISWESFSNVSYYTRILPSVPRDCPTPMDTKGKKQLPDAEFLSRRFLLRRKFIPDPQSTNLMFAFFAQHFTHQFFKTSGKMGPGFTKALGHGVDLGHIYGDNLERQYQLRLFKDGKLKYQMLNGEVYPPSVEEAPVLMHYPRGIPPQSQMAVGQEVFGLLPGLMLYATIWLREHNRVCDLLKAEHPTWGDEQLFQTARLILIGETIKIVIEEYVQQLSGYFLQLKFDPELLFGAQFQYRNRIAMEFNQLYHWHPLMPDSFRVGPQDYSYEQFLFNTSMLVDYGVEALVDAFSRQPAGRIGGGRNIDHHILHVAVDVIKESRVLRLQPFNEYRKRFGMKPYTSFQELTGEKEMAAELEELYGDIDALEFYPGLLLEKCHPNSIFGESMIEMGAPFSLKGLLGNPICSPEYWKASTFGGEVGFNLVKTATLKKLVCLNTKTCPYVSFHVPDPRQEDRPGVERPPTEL
Put plainly: Spectrophotometric assay of cox-1 (TMPD oxidation). To be noted: Conc. 100 μM; microsomal fraction of ram seminal vesicles; read-out: Percent inhibition COX-1. Type of data set: biochemical. As for the experimental part: (§1) 1. Spectrophotometric assay of cox-1 and cox-2:
(§2) Microsomal fraction of ram seminal vesicles used as a source of cox-1 enzyme (Hemler et al., 1976) and microsomes from sf-9 cells infected with baculo virus containing human cox-2 c-DNA used as a source of cox-2 enzyme (Wanda et al., 1994). Enzyme activity was measured using a chromogenic assay based on oxidation of N,N,N′,N′-tetramethyl-p-phenylenediamine (TMPD) during the reduction of PGG2 to PGH2 as per described by Copeland et al., 1994 with following modifications. The assay mixture (1000 μl) contains […] pH 8.0, 3 μM EDTA, 15 μM hematin, 150 units enzyme and 8% DMSO. The mixture was pre-incubated at 25° C. for 15 minutes before initiation of enzyme reaction in presence of compound/vehicle. The reaction was initiated by the addition of 100 μM arachidonic acid and 120 μM TMPD. The enzyme activity is measured by estimation of the initial velocity of TMPD oxidation over the first 25 seconds of the reaction followed by increase in absorbency at […]. The IC50 values were calculated using non-linear regression analysis of percent inhibitions.

The target in data set [1] is T2, COX-2 (Homo sapiens, UniProt P35354).
T2 sequence (P35354 18-604): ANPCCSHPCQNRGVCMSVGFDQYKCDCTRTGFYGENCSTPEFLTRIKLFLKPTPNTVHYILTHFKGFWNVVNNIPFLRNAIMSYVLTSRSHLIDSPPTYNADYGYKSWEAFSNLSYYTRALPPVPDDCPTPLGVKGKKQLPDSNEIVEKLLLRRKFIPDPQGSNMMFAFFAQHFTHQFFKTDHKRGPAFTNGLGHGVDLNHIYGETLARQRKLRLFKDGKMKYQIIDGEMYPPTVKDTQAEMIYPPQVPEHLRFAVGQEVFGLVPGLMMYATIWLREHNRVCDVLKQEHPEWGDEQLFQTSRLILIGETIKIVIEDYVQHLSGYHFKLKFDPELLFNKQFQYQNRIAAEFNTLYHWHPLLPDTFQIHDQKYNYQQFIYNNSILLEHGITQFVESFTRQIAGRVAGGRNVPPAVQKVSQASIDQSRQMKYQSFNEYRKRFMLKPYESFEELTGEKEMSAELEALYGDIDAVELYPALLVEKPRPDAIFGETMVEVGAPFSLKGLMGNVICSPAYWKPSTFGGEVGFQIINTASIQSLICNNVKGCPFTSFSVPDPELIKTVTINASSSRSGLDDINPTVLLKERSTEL
Put plainly: Human whole blood assay, COX-2 inhibition. Conditions: read-out: IC50 COX-II. Details: endogenous in cells; host or cells: human whole blood. It counts as cell-based. As for the experimental part:
(§3) 2) Human Whole Blood Assay:
An aliquot of fresh blood was mixed either with DMSO or test compounds and was allowed to clot for 1 hour at 37° C. TXB2 levels in the serum were measured using EIA kit (Cayman chemicals, USA) after deproteinization.

The target of another data set is T3, COX-1 (Homo sapiens, UniProt P23219).
T3 construct: Fresh heparinised human whole blood; endogenous in cells; host or cells: human whole blood
T3 sequence (P23219 24-599): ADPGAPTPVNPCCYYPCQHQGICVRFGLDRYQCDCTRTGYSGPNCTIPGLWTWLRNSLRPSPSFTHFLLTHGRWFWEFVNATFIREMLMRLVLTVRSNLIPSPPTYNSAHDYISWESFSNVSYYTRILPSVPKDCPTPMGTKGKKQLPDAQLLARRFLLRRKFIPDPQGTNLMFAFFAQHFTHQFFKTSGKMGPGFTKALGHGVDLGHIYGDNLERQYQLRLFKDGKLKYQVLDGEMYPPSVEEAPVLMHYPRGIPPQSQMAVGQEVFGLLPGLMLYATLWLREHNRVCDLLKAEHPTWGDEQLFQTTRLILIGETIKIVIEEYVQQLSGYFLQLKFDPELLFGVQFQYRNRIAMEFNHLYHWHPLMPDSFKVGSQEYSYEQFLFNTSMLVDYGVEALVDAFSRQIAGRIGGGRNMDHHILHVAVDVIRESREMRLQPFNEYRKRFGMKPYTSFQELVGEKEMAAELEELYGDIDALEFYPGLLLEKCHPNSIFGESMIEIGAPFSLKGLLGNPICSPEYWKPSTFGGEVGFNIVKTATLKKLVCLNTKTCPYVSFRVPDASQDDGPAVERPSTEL
Put plainly: Human whole blood assay, COX-1 inhibition. Type of data set: cell-based. As for the experimental part:
as §3
Fresh heparinised human whole blood was incubated with lipopolysaccharide (LPS) from E. coli at 100 μg/ml and with 2.5 μl vehicle (D)MSO) or test compound for 24 hours at 37° C. PGE2 levels in the plasma were measured using EIA kit (Cayman chemicals, USA) after deproteinization.

The target of data set [2] is T2, COX-2. Put plainly: Spectrophotometric assay of cox-2 (TMPD oxidation). It counts as biochemical. Details: made in house; host or cells: sf-9 insect cells, baculovirus. Conditions: Conc. 100 μM; microsomes from sf-9 cells with human cox-2; read-out: Percent inhibition COX-2. The method, then:
as §1, §2

Molecules are shown by their SMILES.

Take `CS(=O)(=O)c1ccc(C2=C(c3ccc(F)cc3)C(=O)OC2)c(F)c1` [Example 1, 3-(4-Fluorophenyl)-4-(2-fluoro-4-methylsulfonylphenyl)-2,5-dihydro-2-furanone]: the melting point was 160 to 162 °C. The inhibition at 100 µM at cox-1 enzyme came out at 33%. At COX-2 [1], the IC50 amounted to 2.72 ± 0.425 µM. Also, on COX-1, the IC50 worked out at 195 ± 27.5 µM. Further, the inhibition at 100 µM at COX-2 [2] was found to be 100%.

`CSc1ccc(C2=C(c3ccc(F)c(F)c3)C(=O)OC2)cc1C` [Example 3, 4-(3-Methyl-4-methylsulfanylphenyl)-3-(3,4-difluorophenyl)-2,5-dihydro-2-furanone] yielded a melting point of 150 to 153 °C.

Take `CSc1ccc(C2=C(c3ccccc3)C(=O)OC2)cc1C` [Example 5, 4-(3-Methyl-4-methylsulfanylphenyl)-3-phenyl-2,5-dihydro-2-furanone]: the melting point lay in the range of 150 to 153 °C.

Turning to `CSc1ccc(C2=C(c3ccc(F)cc3)C(=O)OC2)cc1C` [Example 7, 4-(3-Methyl-4-methylsulfanylphenyl)-3-(4-fluorophenyl)-2,5-dihydro-2-furanone], the melting point was 126 to 130 °C.

`CSc1ccc(C2=C(c3ccc(C)cc3)C(=O)OC2)cc1C` [Example 8, 4-(3-Methyl-4-methylsulfanylphenyl)-3-(4-methylphenyl)-2,5-dihydro-2-furanone] gave a melting point of 144 to 147 °C.

`CSc1ccc(C2=C(c3ccc(CC(C)C)cc3)C(=O)OC2)cc1C` [Example 11, 4-(3-Methyl-4-methylsulfanylphenyl)-3-(4-isobutylphenyl)-2,5-dihydro-2-furanone]: the melting point lay in the range of 146 to 149 °C.

`COc1ccc(C2=C(c3ccc(SC)c(C)c3)COC2=O)cc1` [Example 12, 4-(3-Methyl-4-methylsulfanylphenyl)-3-(4-methoxyphenyl)-2,5-dihydro-2-furanone] yielded a melting point of 147 to 150 °C.

Regarding `COc1cc(C2=C(c3ccccc3)C(=O)OC2)ccc1SC` [Example 14, 3-Phenyl-4-(3-methoxy-4-methylsulfanylphenyl)-2,5-dihydro-2-furanone], the melting point was in the range of 142 to 144 °C.

In the case of `CSc1ccc(C2=C(c3ccc(C(F)(F)F)cc3)C(=O)OC2)cc1C` [Example 16, 4-(3-Methyl-4-methylsulfanylphenyl)-3-(4-trifluoromethylphenyl)-2,5-dihydro-2-furanone], the melting point lay in the range of 140 to 143 °C.

For the compound `CSc1ccc(C2=C(c3ccccc3)C(=O)OC2)c(F)c1` [Example 18, 4-(2-Fluoro-4-methylsulfanylphenyl)-3-phenyl-2,5-dihydro-2-furanone], the melting point lay in the range of 145 to 147 °C.

`CSc1ccc(C2=C(c3ccccc3)C(=O)OC2)cc1Cl` [Example 20, 4-(4-Methylsulfanyl-3-chlorophenyl)-3-phenyl-2,5-dihydro-2-furanone] displayed a melting point of 151 to 152 °C.

Turning to `CSc1ccc(C2=C(c3ccc(SC)c(Cl)c3)COC2=O)cc1` [Example 21, 3-(4-Methylsulfanylphenyl)-4-(3-chloro-4-methylsulfanylphenyl)-2,5-dihydro-2-furanone], the melting point was in the range of 157 to 158 °C.

With `CSc1ccc(C2=C(c3ccc(F)c(F)c3)C(=O)OC2)cc1Cl` [Example 22, 4-(4-Methylsulfanyl-3-chlorophenyl)-3-(3,4-difluorophenyl)-2,5-dihydro-2-furanone], the melting point lay within 151 to 152 °C.

As for `CSc1ccc(C2=C(c3ccccc3)C(=O)OC2)cc1F` [Example 23, 4-(4-Methylsulfanyl-3-fluorophenyl)-3-phenyl-2,5-dihydro-2-furanone], the melting point is 145 to 146 °C.

`CSc1ccc(C2=C(c3ccc(SC)c(F)c3)COC2=O)cc1` [Example 24, 4-(4-Methylsulfanyl-3-fluorophenyl)-3-(4-methylsulfanylphenyl)-2,5-dihydro-2-furanone]: the melting point is 161 to 162 °C.

In turn, `CSc1ccc(C2=C(c3ccc(C)cc3)C(=O)OC2)cc1Cl` [Example 26, 4-(4-Methylsulfanyl-3-chlorophenyl)-3-(4-methylphenyl)-2,5-dihydro-2-furanone] returned a melting point of 147 to 149 °C.

Consider `CSc1ccc(C2=C(c3ccc(C)cc3)C(=O)OC2)cc1F` [Example 27, 4-(4-Methylsulfanyl-3-fluorophenyl)-3-(4-methylphenyl)-2,5-dihydro-2-furanone], for which the melting point lay within 159 to 160 °C.

As to `COOSc1ccc(C2=C(c3ccc(C)cc3)C(=O)OC2)cc1Cl` [Example 29], the melting point fell in the range of 164 to 166 °C.

Regarding `CSc1ccc(C2=C(c3ccc(CC(C)C)cc3)C(=O)OC2)c(F)c1` [Example 35, 4-(2-Fluoro-4-methylsulfanylphenyl)-3-(4-isobutylphenyl)-2,5-dihydro-2-furanone], the melting point lay in the range of 92 to 94 °C.

The compound `COc1ccc(C2=C(c3ccc(SC)c(F)c3)COC2=O)cc1` [Example 38, 4-(4-Methylsulfanyl-3-fluorophenyl)-3-(4-methoxyphenyl)-2,5-dihydro-2-furanone] came in with a melting point of 122 to 124 °C.

`CSc1ccc(C2=C(c3ccc(F)cc3)C(=O)OC2)c(F)c1` [Example 42, 4-(2-Fluoro-4-methylsulfanylphenyl)-3-(4-fluorophenyl)-2,5-dihydro-2-furanone] registered a melting point of 118 °C.

Turning to `CS(=O)(=O)c1ccc(C2=C(c3cccc4ccccc34)C(=O)OC2)c(F)c1` [Example 54, 4-(2-Fluoro-4-methylsulfonylphenyl)-3-(1-naphthyl)-2,5-dihydro-2-furanone], the melting point is 145 to 148 °C.

Regarding `CC1(C)OC(=O)C(c2ccc(F)cc2)=C1c1ccc(S(C)(=O)=O)c(CN2CCOCC2)c1` [Example 67, 3-(4-Fluorophenyl)-5,5-dimethyl-4-(4-methylsulfonyl-3-morpholinomethylphenyl)-2,5-dihydro-2-furanone], the melting point was in the range of 127 to 130 °C.

For the compound `CCC1OC(=O)C(c2ccc(SC)c(C)c2)=C1c1ccc(S(C)(=O)=O)c(F)c1` (stereo not shown) [Example 71, 5-Ethyl-4-(3-fluoro-4-methylsulfonylphenyl)-3-(3-methyl-4-methylsulfanylphenyl)-2,5-dihydro-2-furanone], the melting point is 148 to 150 °C. Further, the inhibition at 100 µM at cox-1 enzyme is 3%. Further, the inhibition at 100 µM on COX-2 [2] turned out to be 99%.

For `CS(=O)(=O)c1ccc(C2=C(c3ccccc3)C(=O)N(c3ccc(F)cc3)C2=O)c(F)c1` [Example 98, 3-(2-Fluoro-4-methylsulfonylphenyl)-1-(4-fluorophenyl)-4-phenyl-2,5-dihydro-1H-2,5-azoledione], the melting point fell in the range of 198 to 200 °C.
